Reference: PubChem BioAssay (NCI)
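A five-concentration, 48-hour dose response in 96-well plates underlies each endpoint, interpolated linearly between surrounding concentrations. GI50 = concentration required for 50% inhibition of growth. TGI marks complete inhibition of growth.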

Experiments:
Assay in all cases: NCI-60 cell line screen, 48 h
[1] = tested on: HS 578T breast
[2] = tested on: MCF7 breast
[3] = tested on: IGROV1 ovarian
[4] = tested on: UACC-257 melanoma
[5] = tested on: OVCAR-3 ovarian
[6] = tested on: SF-295 CNS
[7] = tested on: SNB-19 CNS
[8] = tested on: NCI-H23 lung
[9] = tested on: SN12C renal
[10] = tested on: K-562 leukemia
[11] = tested on: HT29 colon
[12] = tested on: COLO 205 colon
[13] = tested on: TK-10 renal
[14] = tested on: SK-MEL-28 melanoma
[15] = tested on: SW-620 colon
[16] = tested on: SK-OV-3 ovarian
[17] = tested on: HCT-15 colon
[18] = tested on: NCI-H226 lung
[19] = tested on: DU-145 prostate
[20] = tested on: A549 NSCLC
[21] = tested on: SK-MEL-2 melanoma
[22] = tested on: U251 CNS
[23] = tested on: MALME-3M melanoma
[24] = tested on: HOP-62 NSCLC
[25] = tested on: 786-0 renal
[26] = tested on: SF-539 CNS
[27] = tested on: SNB-75 CNS
[28] = tested on: SF-268 CNS
[29] = tested on: LOX IMVI melanoma
[30] = tested on: RXF 393 renal
[31] = tested on: HL-60(TB) leukemia
[32] = tested on: OVCAR-4 ovarian
[33] = tested on: MDA-MB-435
[34] = tested on: UO-31 renal
[35] = tested on: NCI-H460 lung
[36] = tested on: T-47D breast
[37] = tested on: MDA-MB-231 breast
[38] = tested on: SK-MEL-5 melanoma
[39] = tested on: HOP-92 NSCLC
[40] = tested on: M14 melanoma
[41] = tested on: CCRF-CEM leukemia
[42] = tested on: CAKI-1 renal
[43] = tested on: OVCAR-5 ovarian
[44] = tested on: A498 renal
[45] = tested on: BT-549 breast
[46] = tested on: HCT-116 colon
[47] = tested on: EKVX NSCLC
[48] = tested on: UACC-62 melanoma
[49] = tested on: HCC-2998 colon
[50] = tested on: MDA-MB-468 breast
[51] = tested on: MOLT-4 leukemia
[52] = tested on: ACHN renal
[53] = tested on: KM12 colon
[54] = tested on: NCI-H522 lung
[55] = tested on: NCI/ADR-RES ovarian
[56] = tested on: OVCAR-8 ovarian
[57] = tested on: PC-3 prostate
[58] = tested on: RPMI-8226 leukemia
[59] = tested on: SR leukemia

Compound: CCn1c(SCC(=O)Nc2ccc(-c3nc4ccccc4[nH]3)cc2)nc2ccccc2c1=O
- GI50 [1]: 2.06 µM
- TGI [1]: 4.66 µM
- GI50 [2]: 1.55 µM
- TGI [2]: 3 µM
- GI50 [3]: 1.69 µM
- TGI [3]: 3.33 µM
- GI50 [4]: 1.79 µM
- TGI [4]: 3.45 µM
- GI50 [5]: 1.78 µM
- TGI [5]: 3.28 µM
- GI50 [6]: 1.67 µM
- TGI [6]: 3.09 µM
- GI50 [7]: 1.75 µM
- TGI [7]: 3.31 µM
- GI50 [8]: 2.04 µM
- TGI [8]: 4.73 µM
- GI50 [9]: 1.47 µM
- TGI [9]: 2.82 µM
- GI50 [10]: 2.91 µM
- TGI [10]: > 100 µM
- GI50 [11]: 1.99 µM
- TGI [11]: 4.26 µM
- GI50 [12]: 2.3 µM
- TGI [12]: 4.27 µM
- GI50 [13]: 1.8 µM
- TGI [13]: 3.26 µM
- GI50 [14]: 1.68 µM
- TGI [14]: 3.05 µM
- GI50 [15]: 1.87 µM
- TGI [15]: 3.5 µM
- GI50 [16]: 1.93 µM
- TGI [16]: 3.92 µM
- GI50 [17]: 1.72 µM
- TGI [17]: 3.3 µM
- GI50 [18]: 1.67 µM
- TGI [18]: 3.6 µM
- GI50 [19]: 2.02 µM
- TGI [19]: 3.99 µM
- GI50 [20]: 1.74 µM
- TGI [20]: 3.59 µM
- GI50 [21]: 1.91 µM
- TGI [21]: 3.95 µM
- GI50 [22]: 1.75 µM
- TGI [22]: 3.39 µM
- GI50 [23]: 1.64 µM
- TGI [23]: 3.02 µM
- GI50 [24]: 1.7 µM
- TGI [24]: 3.18 µM
- GI50 [25]: 1.65 µM
- TGI [25]: 3.02 µM
- GI50 [26]: 1.76 µM
- TGI [26]: 3.15 µM
- GI50 [27]: 1.29 µM
- TGI [27]: 2.61 µM
- GI50 [28]: 2.06 µM
- TGI [28]: 4.56 µM
- GI50 [29]: 1.7 µM
- TGI [29]: 3.1 µM
- GI50 [30]: 1.71 µM
- TGI [30]: 3.19 µM
- GI50 [31]: 2.46 µM
- TGI [31]: 6.02 µM
- GI50 [32]: 1.75 µM
- TGI [32]: 3.2 µM
- GI50 [33]: 1.73 µM
- TGI [33]: 3.11 µM
- GI50 [34]: 1.53 µM
- TGI [34]: 2.88 µM
- GI50 [35]: 1.77 µM
- TGI [35]: 3.29 µM
- GI50 [36]: 1.71 µM
- TGI [36]: 3.49 µM
- GI50 [37]: 1.82 µM
- TGI [37]: 3.35 µM
- GI50 [38]: 1.78 µM
- TGI [38]: 3.33 µM
- GI50 [39]: 1.66 µM
- TGI [39]: 4.05 µM
- GI50 [40]: 1.7 µM
- TGI [40]: 3.15 µM
- GI50 [41]: 25 µM
- TGI [41]: > 100 µM
- GI50 [42]: 1.78 µM
- TGI [42]: 3.29 µM
- GI50 [43]: 1.48 µM
- TGI [43]: 2.98 µM
- GI50 [44]: 1.61 µM
- TGI [44]: 3.18 µM
- GI50 [45]: 1.5 µM
- TGI [45]: 2.86 µM
- GI50 [46]: 1.75 µM
- TGI [46]: 3.13 µM
- GI50 [47]: 1.84 µM
- TGI [47]: 3.9 µM
- GI50 [48]: 1.56 µM
- TGI [48]: 2.93 µM
- GI50 [49]: 2.04 µM
- TGI [49]: 4.89 µM
- GI50 [50]: 1.56 µM
- TGI [50]: 3.04 µM
- GI50 [51]: 4.21 µM
- TGI [51]: > 100 µM
- GI50 [52]: 1.7 µM
- TGI [52]: 3.07 µM
- GI50 [53]: 2.5 µM
- TGI [53]: 6.49 µM
- GI50 [54]: 1.77 µM
- TGI [54]: 3.51 µM
- GI50 [55]: 1.82 µM
- TGI [55]: 3.65 µM
- GI50 [56]: 2.09 µM
- TGI [56]: 4.6 µM

Compound: O=C1Nc2cc(-c3ccc(NS(=O)(=O)c4ccc([N+](=O)[O-])cc4)cc3)ccc2/C1=C/c1ccc[nH]1
- GI50 [1]: 22.5 µM
- TGI [1]: > 100 µM
- GI50 [2]: 1.74 µM
- TGI [2]: 14.1 µM
- GI50 [3]: 19.4 µM
- TGI [3]: > 100 µM
- GI50 [4]: 11.1 µM
- TGI [4]: 44.3 µM
- GI50 [5]: 13.9 µM
- TGI [5]: 32.4 µM
- GI50 [6]: 11.4 µM
- TGI [6]: 41.3 µM
- GI50 [7]: 16.3 µM
- TGI [7]: 56.6 µM
- GI50 [8]: 6.59 µM
- TGI [8]: 26.8 µM
- GI50 [9]: 14.6 µM
- TGI [9]: 34.8 µM
- GI50 [10]: 11.5 µM
- TGI [10]: > 100 µM
- GI50 [11]: 14.8 µM
- TGI [11]: 34 µM
- GI50 [12]: 16 µM
- TGI [12]: 47.9 µM
- GI50 [13]: 16.4 µM
- TGI [13]: 51.3 µM
- GI50 [14]: 12.3 µM
- TGI [14]: 28 µM
- GI50 [15]: 21 µM
- TGI [15]: 51.2 µM
- GI50 [57]: 11.6 µM
- TGI [57]: 65.2 µM
- GI50 [16]: 18.2 µM
- TGI [16]: 49.8 µM
- GI50 [17]: 11 µM
- TGI [17]: 33.8 µM
- GI50 [18]: 12.2 µM
- TGI [18]: 30.1 µM
- GI50 [19]: 16 µM
- TGI [19]: 33.6 µM
- GI50 [20]: 12.1 µM
- TGI [20]: 28.9 µM
- TGI [21]: 71.4 µM
- GI50 [22]: 13.6 µM
- TGI [22]: 27.3 µM
- GI50 [23]: 15.7 µM
- TGI [23]: 37.4 µM
- GI50 [58]: 6.15 µM
- TGI [58]: 73.6 µM
- GI50 [24]: 18 µM
- TGI [24]: 44.1 µM
- GI50 [25]: 14.4 µM
- TGI [25]: 31.1 µM
- GI50 [26]: 10.9 µM
- TGI [26]: 23.8 µM
- GI50 [27]: 20.4 µM
- TGI [27]: > 100 µM
- GI50 [28]: 16.4 µM
- TGI [28]: 80.4 µM
- GI50 [29]: 13.7 µM
- TGI [29]: 27.2 µM
- GI50 [30]: 13.3 µM
- TGI [30]: 31.6 µM
- GI50 [31]: 27.6 µM
- TGI [31]: > 100 µM
- GI50 [32]: 10.9 µM
- TGI [32]: 92.6 µM
- GI50 [33]: 16.1 µM
- TGI [33]: 42.8 µM
- GI50 [34]: 6.74 µM
- TGI [34]: > 100 µM
- GI50 [35]: 9.97 µM
- TGI [35]: 32.2 µM
- GI50 [36]: 4.77 µM
- TGI [36]: > 100 µM
- GI50 [37]: 16.8 µM
- TGI [37]: 38.6 µM
- GI50 [38]: 19.9 µM
- TGI [38]: 72.7 µM
- GI50 [39]: 14.2 µM
- TGI [39]: 39.6 µM
- GI50 [40]: 13.8 µM
- TGI [40]: 43.1 µM
- GI50 [41]: 13.6 µM
- TGI [41]: > 100 µM
- GI50 [42]: 14.1 µM
- TGI [42]: 36.6 µM
- GI50 [59]: 10.3 µM
- TGI [59]: > 100 µM
- GI50 [43]: 18.1 µM
- TGI [43]: 50.2 µM
- GI50 [44]: 18.4 µM
- TGI [44]: 50.1 µM
- GI50 [45]: 10.5 µM
- TGI [45]: 34.8 µM
- GI50 [46]: 13.2 µM
- TGI [46]: 29 µM
- GI50 [47]: 2.28 µM
- TGI [47]: 32.7 µM
- GI50 [48]: 10.3 µM
- TGI [48]: 29.7 µM
- GI50 [49]: 18.6 µM
- TGI [49]: > 100 µM
- GI50 [50]: 0.778 µM
- TGI [50]: 7.33 µM
- GI50 [51]: 8.77 µM
- TGI [51]: > 100 µM
- GI50 [52]: 12.1 µM
- TGI [52]: 26.9 µM
- GI50 [53]: 14.3 µM
- TGI [53]: 65.6 µM
- GI50 [54]: 6.54 µM
- TGI [54]: 28 µM
- GI50 [55]: 14.8 µM
- TGI [55]: 50.9 µM
- GI50 [56]: 15.8 µM
- TGI [56]: 36.2 µM
